Assay results taken from US20220323406A1, “METHODS AND COMPOSITIONS FOR DIFFERENTIATING STEM CELLS” (Massachusetts Institute of Technology, priority 2019, published 2022).
Where a name gives a salt, the structure may show the parent alone.

Tests used:
[1] = system: ENR+CD organoids (ISC to Paneth cell differentiation); experiment: Primary screen: CCh-stimulated lysozyme secretion LYZ.S, 2.5-D 384-well ENR+CD organoid differentiation; type: cell-based, mouse; conditions: primary screen, FC vs plate median
From the text: (§1) High-throughput screening.

[2] = system: ENR+CD organoids (ISC to Paneth cell differentiation); experiment: Primary screen: basal (non-stimulated) lysozyme secretion LYZ.NS, 2.5-D 384-well ENR+CD organoid differentiation; type: cell-based, mouse; conditions: primary screen; for Z.LYZ.NS: standard z score; for Dose.FC.LYZ.NS: FC vs plate median
From the text: as §1

ENR+CD organoids = experiment: Primary screen: ATP (CellTiter-Glo 3D, CTG) cell number/viability, 2.5-D 384-well ENR+CD organoids; conditions: primary screen; for Z.CTG: standard z score; for Dose.FC.CTG: FC vs plate median;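 for all read-outs here: compounds given at plating and again on day 3 over a 6-day differentiation from ENR+CV stem-cell-enriched precursors, ATP measured on day 6, plate median as control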

Row | Compound | Dose.FC.LYZ.S ([1]; dose 0.08 uM) [log2 fold change] | Dose.FC.LYZ.S ([1]; dose 0.40 uM) [log2 fold change] | Dose.FC.LYZ.S ([1]; dose 2.00 uM) [log2 fold change] | Dose.FC.LYZ.S ([1]; dose 10.00 uM) [log2 fold change] | Z.LYZ.NS ([2]; dose 0.08 uM) | Z.LYZ.NS ([2]; dose 0.40 uM) | Z.LYZ.NS ([2]; dose 2.00 uM) | Z.LYZ.NS ([2]; dose 10.00 uM) | Dose.FC.LYZ.NS ([2]; dose 0.08 uM) [log2 fold change] | Dose.FC.LYZ.NS ([2]; dose 0.40 uM) [log2 fold change] | Dose.FC.LYZ.NS ([2]; dose 2.00 uM) [log2 fold change] | Dose.FC.LYZ.NS ([2]; dose 10.00 uM) [log2 fold change] | Z.CTG (ENR+CD organoids; dose 0.08 uM) | Z.CTG (ENR+CD organoids; dose 0.40 uM) | Z.CTG (ENR+CD organoids; dose 2.00 uM) | Z.CTG (ENR+CD organoids; dose 10.00 uM) | Dose.FC.CTG (ENR+CD organoids; dose 0.08 uM) [log2 fold change] | Dose.FC.CTG (ENR+CD organoids; dose 0.40 uM) [log2 fold change] | Dose.FC.CTG (ENR+CD organoids; dose 2.00 uM) [log2 fold change] | Dose.FC.CTG (ENR+CD organoids; dose 10.00 uM) [log2 fold change]
1 | NCC(=O)Nc1ccc(-n2nc(C(F)(F)F)cc2-c2ccc3c(ccc4ccccc43)c2)cc1 [OSU-03012 (AR-12)] | 0.126 | 0.113 | 0.060 | −0.128 | 0.755 | 0.285 | 0.460 | −0.423 | 0.087 | 0.033 | 0.053 | −0.049 | 0.491 | 0.272 | 0.556 | 0.185 | 0.205 | 0.114 | 0.233 | 0.078
2 | Cc1sc2c(c1C)C(c1ccc(Cl)cc1)=N[C@@H](CC(=O)Nc1ccc(O)cc1)c1nnc(C)n1-2 [OTX015] | −0.279 | −0.350 | −0.350 | −0.362 | −1.726 | −2.317 | −2.082 | −2.225 | −0.198 | −0.266 | −0.239 | −0.256 |  |  |  |  | −0.038 | −0.398 | −0.686 | −0.908
3 | CC(C)(F)C[C@H](N[C@@H](c1ccc(-c2ccc(S(C)(=O)=O)cc2)cc1)C(F)(F)F)C(=O)NC1(C#N)CC1 [Odanacatib (MK-0822)] | 0.091 | 0.170 | 0.036 | −0.074 | 0.752 | 1.409 | 0.212 | −0.307 | 0.086 | 0.162 | 0.024 | −0.035 | 0.285 | 0.496 | −0.020 | 0.015 | 0.119 | 0.208 | −0.008 | 0.006
4 | CC[C@@H]1/C=C/C=C/C[C@H](C)[C@H](O)[C@](C)(O)C(=O)[C@H](C)[C@@H](O)[C@H](C)C(=O)[C@H](C)[C@@H](O)[C@H](C)/C=C/C(=O)O[C@H]2[C@@H](C)[C@@H](CC1)O[C@@]1(CC[C@@H](C)[C@@H](C[C@H](C)O)O1)[C@@H]2C [Oligomycin A] | −0.243 | −0.274 | −0.269 | −0.288 | −1.778 | −2.013 | −1.857 | −1.943 | −0.204 | −0.231 | −0.213 | −0.223 | −1.581 | −1.685 | −2.261 | −2.972 | −0.662 | −0.706 | −0.946 | −1.244
5 | CCc1c(C(=O)NCCc2ccc(N3CCCCC3)cc2)[nH]c2ccc(Cl)cc12 [Org 27569] | 0.174 | 0.032 | 0.059 | 0.001 | 1.060 | 0.445 | 0.683 | 0.248 | 0.122 | 0.051 | 0.078 | 0.029 | 0.663 | 0.173 | 0.865 | 0.646 | 0.278 | 0.072 | 0.362 | 0.270
6 | NC(=O)N1c2ccccc2CC(=O)c2ccccc21 [Oxcarbazepine] | 0.043 | 0.154 | 0.042 | −0.057 | 0.035 | −0.001 | 0.349 | −0.527 | 0.004 | 0.000 | 0.040 | −0.061 |  |  |  |  | −0.021 | −0.103 | −0.082 | −0.150
7 | Cc1cc(C(C)(C)C)c(O)c(C)c1CC1=NCCN1 [Oxymetazoline HCl] | 0.143 | 0.116 | −0.012 | −0.046 | 0.515 | 0.134 | 0.199 | 0.065 | 0.059 | 0.015 | 0.023 | 0.007 |  |  |  |  | 0.143 | 0.118 | −0.007 | 0.118
8 | O=C(O)/C=C/c1ccc(Cn2ccnc2)cc1 [Ozagrel HCl] | 0.119 | 0.073 | 0.135 | 0.061 | 1.756 | 0.000 | 0.308 | −0.061 | 0.202 | 0.000 | 0.035 | −0.007 |  |  |  |  | 0.049 | 0.133 | 0.183 | 0.229
9 | O=C(O)/C=C/c1ccc(Cn2ccnc2)cc1 [Ozagrel] | 0.145 | 0.096 | 0.104 | 0.011 | 0.645 | 0.381 | 0.698 | −0.068 | 0.074 | 0.044 | 0.080 | −0.008 |  |  |  |  | 0.055 | 0.224 | −0.063 | 0.113
10 | CC(=O)c1cc([N+](=O)[O-])c(Sc2ccc(F)cc2F)s1 [P22077] | −0.182 | 0.065 | −0.007 | −0.063 | 0.338 | −0.041 | 0.248 | −0.487 | 0.039 | −0.005 | 0.028 | −0.056 | −0.516 | 0.117 | −0.320 | −0.311 | −0.216 | 0.049 | −0.134 | −0.130
11 | C=CCc1cccc(/C=N/NC(=O)CN2CCN(Cc3ccccc3)CC2)c1O [PAC-1] | 0.128 | 0.059 | −0.006 | 0.092 | 1.365 | 0.457 | 1.094 | 0.596 | 0.157 | 0.053 | 0.126 | 0.068 | 0.228 | 0.270 | −0.576 | 0.004 | 0.095 | 0.113 | −0.241 | 0.002
